From patent publication EP0672658B1, “Antithrombotic agents” (priority 1994, dated 1995)
Where a name gives a salt, the structure may show the parent alone.

How the values were obtained:
human or animal plasma [1] = experiment: Anticoagulation determination in plasma: thrombin time (TT); type: biochemical; settings: concentration doubling thrombin time
Outline: (§1)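 Compounds spiked over a concentration range into citrated human, dog or rat plasma. PT used Thromboplastin-C; APTT used Actin reagent 120 s then 0.02 M CaCl2; TT used bovine thrombin 10 NIH units/mL. Concentration doubling clotting time estimated by linear extrapolation.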

Human Thrombin = Human Thrombin (Homo sapiens, UniProt P00734); experiment: biochemical; settings: read-out: Kass Human Thrombin (converted)
[2] = Coagulation parameters in plasma of treated rats (TT, APTT, prothrombin time); type: in vivo, rat; settings: for plasma thrombin time prolonged: during infusion reducing thrombus weight to approximately 20% of control in the Arterio-Venous shunt model
Protocol: Plasma thrombin time (TT) and activated partial thromboplastin time (APTT) are measured with a fibrometer. Blood is sampled from a jugular catheter and collected in syringe containing sodium citrate (3.8%, 1 part to 9 parts blood). To measure TT, rat plasma (0.1 mL) is mixed with saline (0.1 mL) and bovine thrombin (0.1 mL, 30 U/mL in TRIS buffer; Parke Davis) at 37 °C. For APTT, plasma (0.1 mL) and APTT solution (0.1 mL, Organon Teknika) are incubated for 5 minutes (37 °C) and CaCl2 (0.01 mL, 0.025 M) is added to start coagulation. Assays are done in duplicate and averaged.

[3] = Arterio-Venous shunt model; type: in vivo, rats; settings: continuous intravenous infusion; for thrombus weight: both compounds to the same extent
Protocol: […]. Blood circulated through the shunt for 15 minutes before the thread is carefully removed and weighed. The weight of a wet thread is subtracted from the total weight of the thread and thrombus (see J.R. Smith, Br. J. Pharmacol., 77,29 (1982)).

Trypsin = target: T1, Trypsin (Bos taurus, UniProt P00760); experiment: biochemical; design: species or system Bovine; settings: read-out: Kass Trypsin (converted)
T1 sequence (P00760 24-246): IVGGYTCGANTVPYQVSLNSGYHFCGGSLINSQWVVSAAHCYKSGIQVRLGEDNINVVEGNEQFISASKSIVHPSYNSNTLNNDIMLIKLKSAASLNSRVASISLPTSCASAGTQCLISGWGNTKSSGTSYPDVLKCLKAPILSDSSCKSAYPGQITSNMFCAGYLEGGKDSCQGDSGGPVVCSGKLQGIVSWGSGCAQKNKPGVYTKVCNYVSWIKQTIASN
Outline: (§2)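 Bovine trypsin and human factor Xa amidase activity measured chromogenically, following the human thrombin procedure. Substrates: N-Benzoyl-Ile-Glu-Gly-Arg-p-nitroanilide for factor Xa and N-Benzoyl-Phe-Val-Arg-p-nitroanilide for trypsin. Used for selectivity profiling.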

t-PA = t-PA (Homo sapiens, UniProt P00750); experiment: biochemical; settings: read-out: Kass t-PA (converted)
Sequence of t-PA (P00750 36-562): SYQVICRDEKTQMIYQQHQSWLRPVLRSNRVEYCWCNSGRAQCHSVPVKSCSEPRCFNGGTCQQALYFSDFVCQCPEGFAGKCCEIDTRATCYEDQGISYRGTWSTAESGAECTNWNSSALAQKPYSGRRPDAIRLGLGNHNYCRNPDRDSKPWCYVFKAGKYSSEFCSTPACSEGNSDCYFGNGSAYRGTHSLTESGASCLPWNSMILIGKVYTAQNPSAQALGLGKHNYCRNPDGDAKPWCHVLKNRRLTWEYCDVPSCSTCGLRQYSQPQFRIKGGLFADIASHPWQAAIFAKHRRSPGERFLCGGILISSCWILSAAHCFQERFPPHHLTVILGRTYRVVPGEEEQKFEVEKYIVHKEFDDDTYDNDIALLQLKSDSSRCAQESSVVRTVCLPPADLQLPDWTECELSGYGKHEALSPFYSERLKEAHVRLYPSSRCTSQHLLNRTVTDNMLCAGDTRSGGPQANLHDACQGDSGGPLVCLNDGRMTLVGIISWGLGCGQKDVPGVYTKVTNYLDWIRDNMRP
Outline: (§3)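 Amidase activity of human plasmin and t-PA (nt-PA single-chain; mt-PA6) was measured by a chromogenic method adapted from a thrombin assay. Substrates were H-D-Val-Leu-Lys-p-nitroanilide for plasmin and H-D-Ile-Pro-Arg-p-nitroanilide for t-PA.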

Plasmin = target: T2, Plasmin (Homo sapiens, UniProt P00747); experiment: biochemical; settings: read-out: Kass Plasmin (converted)
T2 construct: Human plasmin is purchased; purchased Boehringer Mannheim, Indianapolis, Indiana
T2 sequence (P00747 581-810 limits assumed): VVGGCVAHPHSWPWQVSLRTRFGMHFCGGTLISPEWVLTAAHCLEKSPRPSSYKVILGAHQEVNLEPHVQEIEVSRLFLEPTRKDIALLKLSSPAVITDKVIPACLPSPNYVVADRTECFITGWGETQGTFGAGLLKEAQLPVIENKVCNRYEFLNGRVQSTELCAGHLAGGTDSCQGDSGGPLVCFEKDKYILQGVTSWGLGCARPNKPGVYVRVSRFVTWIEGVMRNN
T2 sequence (P00747 97-580 partner limits assumed): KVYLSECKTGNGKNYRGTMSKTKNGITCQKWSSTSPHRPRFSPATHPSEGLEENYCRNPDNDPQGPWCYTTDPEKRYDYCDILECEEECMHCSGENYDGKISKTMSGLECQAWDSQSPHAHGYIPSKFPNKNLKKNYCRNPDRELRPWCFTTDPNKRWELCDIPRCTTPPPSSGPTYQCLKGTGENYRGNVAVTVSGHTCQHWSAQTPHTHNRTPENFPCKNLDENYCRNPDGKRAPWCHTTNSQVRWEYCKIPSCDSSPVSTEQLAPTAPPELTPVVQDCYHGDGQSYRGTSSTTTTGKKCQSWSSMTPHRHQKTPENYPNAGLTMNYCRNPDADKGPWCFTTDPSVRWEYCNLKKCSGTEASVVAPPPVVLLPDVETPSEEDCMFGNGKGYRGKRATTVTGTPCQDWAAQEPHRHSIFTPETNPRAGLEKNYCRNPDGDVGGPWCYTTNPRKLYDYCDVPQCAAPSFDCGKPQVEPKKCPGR
Outline: as §3

human or animal plasma [4] = experiment: Anticoagulation determination in plasma: prothrombin time (PT); type: biochemical; settings: concentration doubling prothrombin time
Outline: as §1

human or animal plasma [5] = experiment: Anticoagulation determination in plasma: activated partial thromboplastin time (APTT); type: biochemical; settings: concentration doubling activated partial thromboplastin time
Outline: as §1

factor Xa = factor Xa (Homo sapiens, UniProt P00742); experiment: biochemical; settings: read-out: Kass Xa (converted)
Sequence of factor Xa (P00742 235-488 limits assumed): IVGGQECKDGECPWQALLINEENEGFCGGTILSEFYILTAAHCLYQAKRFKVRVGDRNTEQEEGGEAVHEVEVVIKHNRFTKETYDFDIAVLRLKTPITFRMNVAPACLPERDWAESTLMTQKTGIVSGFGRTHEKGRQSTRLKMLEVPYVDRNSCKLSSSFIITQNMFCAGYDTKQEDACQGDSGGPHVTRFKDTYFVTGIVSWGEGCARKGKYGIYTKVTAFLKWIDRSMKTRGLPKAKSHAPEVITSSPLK
Sequence of factor Xa (P00742 41-179 partner limits assumed): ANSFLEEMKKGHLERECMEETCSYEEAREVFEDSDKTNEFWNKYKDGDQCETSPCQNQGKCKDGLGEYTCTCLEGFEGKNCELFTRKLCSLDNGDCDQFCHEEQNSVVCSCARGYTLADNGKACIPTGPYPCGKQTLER
Outline: as §2

[6] = during infusion in the Arterio-Venous shunt model

In the case of `N=C(N)c1ccc(CNC(=O)[C@@H]2CCCN2C(=O)[C@@H](CC2CCCCC2)NCC(=O)O)cc1` [Example 48, HOOCCH2-D-Cha-Pro-p-NHCH2C6H4C(NH)NH2·HCl], the “Human Plasma Anticoagulation 2x Clotting time (ng/mL) TT” value (human or animal plasma [1]) is reported as 2. ng/mL, the Kd (Human Thrombin) is reported as 0.244 nM and the APTT extended [2, 6] is reported as “about 120 % of control”. For the same compound, the Prothrombin time extended [2, 6] was “about 120 % of control”, the “plasma thrombin time prolonged” value [2] was “about 3 fold” and the thrombus weight [3] was “approximately 20 % of control”. The “antithrombotic potency compared with D-MePhe-Pro-Arg-H” value ([3]; greater than D-MePhe-Pro-Arg-H) was 9 fold, the Kd (Trypsin) was 4 nM and the Kd (t-PA) was 20000 nM. The Kd (Plasmin) was 2330 nM, the “Human Plasma Anticoagulation 2x Clotting time (ng/mL) PT” value (human or animal plasma [4]) was 59 ng/mL and the “Human Plasma Anticoagulation 2x Clotting time (ng/mL) APTT” value (human or animal plasma [5]) was 33 ng/mL. The Kd (factor Xa) was 182 nM.
For `CN[C@H](Cc1ccccc1)C(=O)N1CCC[C@H]1C(=O)N[C@H](C=O)CCCNC(=N)N` [D-MePhe-Pro-Arg-H, reference compound], the “plasma thrombin time prolonged” value [2] was “greater than 20 fold” and the thrombus weight [3] was “approximately 20 % of control”.
